Test results as given in patent US20230017539A1, “TRI-HETEROCYCLIC COMPOUND AS JAK INHIBITOR, AND USE THEREOF” (CHIA TAI TIANQING PHARMACEUTICAL GROUP CO., LTD., priority 2019, published 2023).

Columns and labels:
[1] = target: T1, TYK2(h) (Homo sapiens, UniProt P29597); assay: In vitro activity assay of TYK2 kinase (radiometric, [γ-33P]-ATP); type: biochemical; conditions: recombinant human Tyk2, 40 min at room temperature
T1 construct: purchased Eurofins, UK
Procedure: (§1) Recombinant human JAK1, JAK2, JAK3 and Tyk2 […], and main instruments and reagents were all provided by Eurofins, UK.
(§2) Dilution of JAK2, JAK3 and TYK2: 20 mM 3-(N-morpholino)propanesulfonic acid (MOPS), 1 mM EDTA, 0.01% Brij-35.5% glycerol, 0.1% β-mercaptoethanol, and 1 mg/mL BSA; dilution of JAK1: 20 mM TRIS, 0.2 mM EDTA, 0.1% β-mercaptoethanol, and 0.01% Brij-35.5% glycerol. All compounds were prepared as 100% DMSO solutions, and the concentration was brought to 50 times the final assay concentration. A test compound was diluted with a 3-fold gradient, with a total of 9 final concentrations ranging from 10 μM to […]. The DMSO content in the assay reaction was 2%. The working stock solution of the compound was added into the assay wells as a first component of the reaction, and the remaining components were then added according to the protocol detailed for the assay below.
(§3) TYK2(h) was incubated with 8 mM MOPS pH 7.0, 0.2 mM EDTA, 250 μM GGMEDIYFEFMGGKKK (SEQ ID NO:4), 10 mM magnesium acetate and [γ-^33P]-ATP (the activity and concentration were tailored as required). The reaction was started by adding a Mg/ATP mixture, and terminated by adding 0.5% phosphoric acid after 40 min of incubation at room temperature. 10 μL of the reactant was then dotted on a P30 filter pad, washed three times with 0.425% phosphoric acid and once with methanol within 4 minutes, and dried, and scintillation counting was performed.
(§4) The IC50 results were obtained by analysis using XLFITS (formula 205) of IDBS company and detailed in Table 1.

[2] = Pharmacokinetic (PK) experiment in rats; type: in vivo; conditions: Sprague-Dawley (SD), rat, plasma, po, male SD rats; for AUC(0-inf) / Cmax / half-life: fasted, tail vein injection 1 mg/kg and gavage 5 mg/kg, route not given; for AUC(0-inf): read-out: AUC0-inf (area under plasma concentration-time curve from time 0 extrapolated to infinite time); for Cmax: read-out: Cmax (peak concentration); for half-life: read-out: T1/2 (half-life) (converted); for bioavailability: gavage 5 mg/kg vs tail vein injection 1 mg/kg
Procedure: A test compound was dissolved [5% DMSO, 95% (12% SBE-β-CD)] to give a clear solution, which was administered into male rats (SD) (overnight fasting, 7-8 weeks old) by tail vein injection and by gavage, respectively. After administration of the test compound, blood was collected from the mandibular vein and centrifuged to obtain plasma at 0.117, 0.333, 1, 2, 4, 7 and 24 h in the tail vein injection group (1 mg/kg), and at 0.25, 0.5, 1, 2, 4, 8 and 24 h in the gavage group (5 mg/kg). The plasma concentration was measured using LC-MS/MS method, and the relevant pharmacokinetic parameters were calculated using WinNonlin™ Version 6.3 pharmacokinetic software with non-compartmental model linear logarithmic trapezoidal method.

[3] = target: T2, JAK1(h) (Homo sapiens, UniProt P23458); assay: In vitro activity assay of JAK1 kinase (radiometric, [γ-33P]-ATP); type: biochemical; conditions: recombinant human JAK1, 40 min at room temperature
T2 construct: purchased Eurofins, UK
Procedure: as §1, §2
JAK1(h) was incubated with 20 mM Tris/HC pH 7.5, 0.2 mM EDTA, 500 μM MGEEPLYWSFPAKKK (SEQ ID NO: 1), 10 mM magnesium acetate and [γ-^33P]-ATP (the activity and concentration were tailored as required). The reaction was started by adding a Mg/ATP mixture, and terminated by adding 0.5% phosphoric acid after 40 min of incubation at room temperature. 10 μL of the reactant was then dotted on a P30 filter pad, washed three times with 0.425% phosphoric acid and once with methanol within 4 minutes, and dried, and scintillation counting was performed.
as §4

[4] = target: T3, JAK2(h) (Homo sapiens, UniProt O60674); assay: In vitro activity assay of JAK2 kinase (radiometric, [γ-33P]-ATP); type: biochemical; conditions: recombinant human JAK2, 40 min at room temperature
T3 construct: purchased Eurofins, UK
Procedure: as §1, §2
as §3, with “JAK2(h)” for “TYK2(h)”, “100” for “250”, “GGMEDIYFEFMGGKKK” left out, “NO: 2),” for “NO:4),”
as §4

[5] = target: T4, JAK3(h) (Homo sapiens, UniProt P52333); assay: In vitro activity assay of JAK3 kinase (radiometric, [γ-33P]-ATP); type: biochemical; conditions: recombinant human JAK3, 40 min at room temperature
T4 construct: purchased Eurofins, UK
T4 sequence (P52333 1-1124): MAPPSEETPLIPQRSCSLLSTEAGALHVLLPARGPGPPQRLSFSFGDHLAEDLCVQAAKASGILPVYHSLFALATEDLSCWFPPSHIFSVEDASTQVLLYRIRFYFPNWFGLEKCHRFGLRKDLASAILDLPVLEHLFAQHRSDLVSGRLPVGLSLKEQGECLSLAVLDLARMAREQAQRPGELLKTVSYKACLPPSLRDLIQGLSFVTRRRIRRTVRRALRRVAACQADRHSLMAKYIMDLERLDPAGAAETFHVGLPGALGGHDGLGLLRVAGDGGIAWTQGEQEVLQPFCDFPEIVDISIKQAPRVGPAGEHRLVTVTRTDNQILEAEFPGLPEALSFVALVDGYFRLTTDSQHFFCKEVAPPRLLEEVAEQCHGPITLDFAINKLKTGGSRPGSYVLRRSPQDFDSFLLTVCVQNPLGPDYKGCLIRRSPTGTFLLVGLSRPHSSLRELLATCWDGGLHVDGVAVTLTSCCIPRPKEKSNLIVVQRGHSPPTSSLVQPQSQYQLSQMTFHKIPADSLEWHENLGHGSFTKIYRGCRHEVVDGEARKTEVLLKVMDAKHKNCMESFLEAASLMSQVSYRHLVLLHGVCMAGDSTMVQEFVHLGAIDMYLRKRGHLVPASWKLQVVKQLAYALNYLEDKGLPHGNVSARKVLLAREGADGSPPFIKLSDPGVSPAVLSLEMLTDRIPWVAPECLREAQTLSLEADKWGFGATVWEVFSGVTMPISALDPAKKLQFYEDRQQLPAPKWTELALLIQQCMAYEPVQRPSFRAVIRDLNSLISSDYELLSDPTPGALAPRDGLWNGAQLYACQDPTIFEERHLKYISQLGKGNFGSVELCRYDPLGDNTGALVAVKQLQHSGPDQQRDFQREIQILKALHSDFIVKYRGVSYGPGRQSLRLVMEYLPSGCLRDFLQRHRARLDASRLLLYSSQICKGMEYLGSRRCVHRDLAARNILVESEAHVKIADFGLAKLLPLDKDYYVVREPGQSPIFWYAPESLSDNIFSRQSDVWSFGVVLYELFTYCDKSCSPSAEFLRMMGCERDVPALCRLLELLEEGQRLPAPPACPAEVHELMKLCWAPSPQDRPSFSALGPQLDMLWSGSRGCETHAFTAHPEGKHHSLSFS
Procedure: as §1, §2
as §3, with “JAK3(h)” for “TYK2(h)”, “500” for “250”, “GGEEEEYFELVKKKK” for “GGMEDIYFEFMGGKKK”, “NO: 3),” for “NO:4),”
as §4

[6] = system: adjuvant-induced arthritis (AIA); assay: In vivo efficacy study of adjuvant-induced arthritis (AIA) in rats; design: species or system female Lewis rats; conditions: for Inhibition rate of area under clinical score curve, AUC (%): two weeks, rat AIA
Procedure: Experimental procedures: the compounds of the present application were tested for their therapeutic effect on arthritis using a rat adjuvant arthritis model. Female Lewis rats weighing 160-180 g were anesthetized with isoflurane and injected with 0.1 mL of Mycobacterium tuberculosis suspension subcutaneously in the left hind paw. 13 days after the modeling, the rats were divided into groups and given corresponding test compounds. For example, the female Lewis rats were orally administered different doses (see Table 3-2 for specific doses) of a solution of test compound 1A in a mixed solvent [5% DMSO, 95% (12% SBE-β-CD)] twice a day (10 test animals in each dose group). During two consecutive weeks of administration, the states of the rats were observed, and the foot volume swellings were recorded and scored.

[7] = system: collagen-induced arthritis (CIA); assay: In vivo efficacy study of collagen-induced arthritis (CIA) in rats; design: species or system Lewis rats; conditions: for Clinical score (on day 14 of administration) Mean ± SEM / Foot volume (mL, on day 14 of administration) Mean ± SEM: rat CIA
Procedure: [table] The compounds of the present application were tested for their therapeutic effect on arthritis using a rat collagen-induced arthritis model. Lewis rats were immunized. The day of the first immunization was recorded as day 0, and the subsequent days were recorded in order. The Lewis rats were anesthetized with isoflurane and injected with 50 μL of prepared collagen emulsion (containing 200 μg of CII) subcutaneously in the tail (2-3 cm away from the base of the tail). On day 21, the same volume of the collagen emulsion was injected in the tail in the same manner. Rats in the normal group were not immunized. On day 27 of the modeling, the rats were divided into groups and administered corresponding test compounds. For example, the female Lewis rats were orally administered different doses (see Table 4-1 for specific doses) of a solution of test compound 4 in a mixed solvent [0.5% HPMC E5/0.5% PVP K30/0.2% SLS in water] twice a day (8 test animals in each dose group). During 14 consecutive days of administration, the states of the rats were observed, and the foot volume swellings were recorded and scored.

T3 sequence (O60674 whole entry): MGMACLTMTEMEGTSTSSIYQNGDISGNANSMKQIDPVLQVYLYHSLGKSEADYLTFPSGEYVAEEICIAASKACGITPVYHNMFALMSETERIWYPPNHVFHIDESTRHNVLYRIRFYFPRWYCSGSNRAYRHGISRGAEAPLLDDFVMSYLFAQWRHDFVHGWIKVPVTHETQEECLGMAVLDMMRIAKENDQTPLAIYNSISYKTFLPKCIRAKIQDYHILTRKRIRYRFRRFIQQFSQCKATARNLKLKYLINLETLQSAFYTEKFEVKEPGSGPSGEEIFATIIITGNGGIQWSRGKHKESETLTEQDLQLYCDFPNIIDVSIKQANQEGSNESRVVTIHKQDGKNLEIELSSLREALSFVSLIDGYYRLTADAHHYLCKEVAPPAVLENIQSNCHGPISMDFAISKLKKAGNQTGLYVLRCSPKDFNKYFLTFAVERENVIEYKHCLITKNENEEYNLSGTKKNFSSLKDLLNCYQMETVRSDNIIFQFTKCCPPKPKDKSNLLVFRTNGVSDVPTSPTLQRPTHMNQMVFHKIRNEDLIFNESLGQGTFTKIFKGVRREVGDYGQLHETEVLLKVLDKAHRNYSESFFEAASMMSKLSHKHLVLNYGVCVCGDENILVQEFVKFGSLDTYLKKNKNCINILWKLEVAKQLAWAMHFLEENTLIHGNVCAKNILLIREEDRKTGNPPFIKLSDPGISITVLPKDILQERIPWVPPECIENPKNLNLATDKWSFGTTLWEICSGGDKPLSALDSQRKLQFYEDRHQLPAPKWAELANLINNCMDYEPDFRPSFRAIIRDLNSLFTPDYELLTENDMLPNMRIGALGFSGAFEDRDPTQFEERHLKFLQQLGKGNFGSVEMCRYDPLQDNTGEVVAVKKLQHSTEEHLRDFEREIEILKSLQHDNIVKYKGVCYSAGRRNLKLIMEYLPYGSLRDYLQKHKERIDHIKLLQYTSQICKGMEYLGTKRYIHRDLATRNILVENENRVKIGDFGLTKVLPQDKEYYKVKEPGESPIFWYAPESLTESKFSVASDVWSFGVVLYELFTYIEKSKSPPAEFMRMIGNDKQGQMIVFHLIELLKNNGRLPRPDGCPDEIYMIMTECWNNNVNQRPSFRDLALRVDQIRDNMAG
T2 sequence (P23458 whole entry): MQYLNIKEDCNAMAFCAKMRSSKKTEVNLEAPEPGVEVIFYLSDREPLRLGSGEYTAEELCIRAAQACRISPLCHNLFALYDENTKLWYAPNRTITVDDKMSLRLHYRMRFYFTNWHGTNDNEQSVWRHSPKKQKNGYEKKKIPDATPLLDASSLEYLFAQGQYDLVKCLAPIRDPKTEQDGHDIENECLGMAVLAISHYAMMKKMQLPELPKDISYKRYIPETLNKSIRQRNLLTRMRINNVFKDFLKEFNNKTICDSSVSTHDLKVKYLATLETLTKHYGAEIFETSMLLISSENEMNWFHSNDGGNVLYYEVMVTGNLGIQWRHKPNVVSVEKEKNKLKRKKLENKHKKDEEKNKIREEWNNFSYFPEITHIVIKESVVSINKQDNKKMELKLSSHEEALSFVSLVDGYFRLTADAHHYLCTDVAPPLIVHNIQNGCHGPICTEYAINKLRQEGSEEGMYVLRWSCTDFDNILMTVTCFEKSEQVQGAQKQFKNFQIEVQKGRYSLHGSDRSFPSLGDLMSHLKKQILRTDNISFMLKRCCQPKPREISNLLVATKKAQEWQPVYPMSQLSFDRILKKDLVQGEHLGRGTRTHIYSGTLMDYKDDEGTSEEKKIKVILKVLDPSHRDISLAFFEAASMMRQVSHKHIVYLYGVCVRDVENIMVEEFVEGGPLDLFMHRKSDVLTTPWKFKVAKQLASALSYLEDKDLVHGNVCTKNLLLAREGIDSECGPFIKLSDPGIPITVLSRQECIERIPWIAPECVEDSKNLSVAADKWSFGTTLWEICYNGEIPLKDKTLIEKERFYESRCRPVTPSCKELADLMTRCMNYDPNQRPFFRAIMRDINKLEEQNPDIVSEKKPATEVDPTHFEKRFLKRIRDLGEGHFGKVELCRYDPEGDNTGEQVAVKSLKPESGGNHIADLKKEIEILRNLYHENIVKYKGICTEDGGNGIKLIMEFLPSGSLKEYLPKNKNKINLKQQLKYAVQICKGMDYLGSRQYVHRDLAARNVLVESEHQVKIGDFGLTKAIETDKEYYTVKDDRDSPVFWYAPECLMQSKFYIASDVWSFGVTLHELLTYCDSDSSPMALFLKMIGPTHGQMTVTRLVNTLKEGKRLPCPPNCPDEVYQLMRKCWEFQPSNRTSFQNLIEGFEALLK
T1 sequence (P29597 whole entry): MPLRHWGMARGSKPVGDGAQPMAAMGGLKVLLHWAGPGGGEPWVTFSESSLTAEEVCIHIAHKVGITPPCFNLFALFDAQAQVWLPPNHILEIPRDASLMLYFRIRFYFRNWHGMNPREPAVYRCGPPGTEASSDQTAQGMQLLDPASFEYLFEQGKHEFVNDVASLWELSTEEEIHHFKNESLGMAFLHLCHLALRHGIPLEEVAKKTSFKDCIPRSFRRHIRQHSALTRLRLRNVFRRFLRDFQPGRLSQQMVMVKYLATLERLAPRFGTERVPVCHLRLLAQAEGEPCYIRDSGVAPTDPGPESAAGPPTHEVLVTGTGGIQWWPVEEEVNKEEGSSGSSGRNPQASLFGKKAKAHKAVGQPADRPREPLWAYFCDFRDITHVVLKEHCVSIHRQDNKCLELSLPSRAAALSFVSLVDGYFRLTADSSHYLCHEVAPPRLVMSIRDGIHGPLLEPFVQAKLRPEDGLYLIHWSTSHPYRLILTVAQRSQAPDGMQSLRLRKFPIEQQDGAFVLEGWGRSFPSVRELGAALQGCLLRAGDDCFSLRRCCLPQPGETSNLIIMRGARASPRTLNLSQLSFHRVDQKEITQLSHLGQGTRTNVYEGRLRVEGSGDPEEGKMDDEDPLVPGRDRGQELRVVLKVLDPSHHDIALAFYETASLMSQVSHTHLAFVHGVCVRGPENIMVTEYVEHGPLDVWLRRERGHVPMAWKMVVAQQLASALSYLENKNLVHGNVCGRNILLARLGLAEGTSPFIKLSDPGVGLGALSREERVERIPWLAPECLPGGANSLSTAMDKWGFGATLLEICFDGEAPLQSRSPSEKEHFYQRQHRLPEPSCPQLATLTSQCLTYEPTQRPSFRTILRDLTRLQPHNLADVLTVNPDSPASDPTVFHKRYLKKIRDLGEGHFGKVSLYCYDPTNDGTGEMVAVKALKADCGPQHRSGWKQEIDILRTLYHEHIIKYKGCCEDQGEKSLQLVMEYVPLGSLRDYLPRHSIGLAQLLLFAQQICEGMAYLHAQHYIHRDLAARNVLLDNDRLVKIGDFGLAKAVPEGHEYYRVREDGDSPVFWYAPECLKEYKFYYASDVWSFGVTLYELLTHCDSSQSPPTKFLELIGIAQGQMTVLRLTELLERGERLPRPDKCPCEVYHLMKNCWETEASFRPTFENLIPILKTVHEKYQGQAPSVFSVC

SMILES | IC50 [1] | IC50 [3] | IC50 [4] | IC50 [5] | other results
N#Cc1cc2n(n1)CC(n1cnc3cnc4[nH]ccc4c31)CC2 (single isomer, unassigned) [Compound 1A] | 35.8 nM | 1.3 nM | 27 nM | 30.8 nM | AUC(0-inf) [2]: 8.51 µM·h; Cmax [2]: 2.94 µM; half-life [2]: 1.35 h; bioavailability [2]: 41.8%; Inhibition rate of area under clinical score curve, AUC (%) ([6]; 3 mg/kg oral twice a day): 49.8%; Mean arthritis clinical score, peak ([6]; 10 mg/kg group, day 13 (day of grouping, start of dosing)): 5.8; Mean arthritis clinical score at the experimental endpoint ([6]; 10 mg/kg group, day 27): 1.3; Inhibition rate of area under clinical score curve, AUC (%) ([6]; 10 mg/kg oral twice a day): 60.3%; Effect on the downward trend of the weight in animals caused by the disease attack ([6]; 3 and 10 mg/kg groups, significant difference from solvent control from day 20): significant relieving effect on the downward trend of the weight; Effect on increase in arthritis clinical score and foot volume ([6]; 3 and 10 mg/kg oral twice a day, dose-dependent): inhibited the increase in arthritis clinical score and foot volume
Cc1nc2cnc3[nH]ccc3c2n1C1CCc2cc(C#N)nn2C1 (single isomer, unassigned) [Compound 2A] | 2 nM | < 1 nM | 2 nM | 25 nM | –
N#Cc1cc2n(n1)CC(n1c(C(F)(F)F)nc3cnc4[nH]ccc4c31)CC2 (single isomer, unassigned) [Compound 3A] | 57 nM | 3 nM | 62 nM | 217 nM | –
COc1nc2cnc3[nH]ccc3c2n1[C@@H]1CCc2cc(C#N)nn2C1 [Compound 4] | 50.3 nM | 0.9 nM | 7 nM | 27.3 nM | AUC(0-inf) [2]: 67.8 µM·h; Cmax [2]: 10.2 µM; half-life [2]: 3.65 h; bioavailability [2]: 119%; Clinical score (on day 14 of administration) Mean ± SEM ([7]; 1 mg/kg oral BID): 0.38 ± 0.16; Foot volume (mL, on day 14 of administration) Mean ± SEM ([7]; 1 mg/kg oral BID): 1.32 ± 0.04 mL; Body weight recovery ([7]; 3 mg/kg BID, end of administration at day 14): recovers to the level in the normal group; Foot volume (mL, on day 14 of administration) Mean ± SEM ([7]; 3 mg/kg oral BID): 1.28 mL; Degree of the foot volume swelling ([7]; BID at 1 and 3 mg/kg): reduced in a dose-dependent manner; Effect on clinical scores of the arthritic rats ([7]; BID at 1 and 3 mg/kg, significant difference from solvent control): reduces the clinical scores of the arthritic rats in a dose-dependent manner
C[C@@H](O)c1nc2cnc3[nH]ccc3c2n1[C@@H]1CCc2cc(C#N)nn2C1 [Compound 5] | 231 nM | 9 nM | 250 nM | 576 nM | –
COc1nc2cnc3[nH]ccc3c2n1[C@H]1CCc2cc(C#N)nn2C1 [Compound 6] | 130 nM | 2.3 nM | 70.2 nM | 73.8 nM | –
C[C@@H](O)c1nc2cnc3[nH]ccc3c2n1[C@H]1CCc2cc(C#N)nn2C1 [Compound 7] | 12.4 nM | 0.3 nM | 53.9 nM | 38.4 nM | –
C[C@@H]1C[C@H]2[C@@H]3CCC4=CC(=O)C=C[C@]4(C)[C@@]3(F)[C@@H](O)C[C@]2(C)[C@@]1(O)C(=O)CO [Dexamethasone, reference compound] | – | – | – | – | Clinical score (on day 14 of administration) Mean ± SEM ([7]; 0.1 mg/kg): 0.00 ± 0.00; Foot volume (mL, on day 14 of administration) Mean ± SEM ([7]; 0.1 mg/kg): 1.22 ± 0.042 mL
